# Measurements as given in patent US20060069132A1, “Azolecarboxamide herbicides” (priority 2004, published 2006).
# Assays:
# canarygrass = assay: Test C postemergence herbicide test; type: in vivo, Phalaris minor
# Method in brief: (§1)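 After a postemergence application at 1 to 4 leaves (plants 2–18 cm high), or at 2 leaves for barnyardgrass in flooded paddy, plants stayed in the greenhouse for 12 to 14 days. Damage was then judged visually relative to control plants, with 100 indicating complete control.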
# green foxtail = assay: Test C postemergence herbicide test; type: in vivo, Setaria viridis
# Method in brief: as §1
# windgrass = assay: Test C postemergence herbicide test; type: in vivo, Apera spica-venti
# Method in brief: as §1
# large crabgrass = assay: Test E pre-/postemergence herbicide test; type: in vivo, Digitaria sanguinalis; details: Preemergence
# Method in brief: (§2)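 Test chemicals in a non-phytotoxic solvent mixture with surfactant applied preemergence to planted seeds and postemergence to plants 2 to 18 cm tall (1- to 4-leaf stage). After 12 to 14 days in the greenhouse, injury rated visually against untreated controls on a 0–100 scale (0 no effect, 100 complete control).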
# johnsongrass = assay: Test E pre-/postemergence herbicide test; type: in vivo, Sorghum halepense; details: Preemergence
# Method in brief: as §2
# pitted morningglory = assay: Test E pre-/postemergence herbicide test; type: in vivo, Ipomoea lacunosa; details: Preemergence
# Method in brief: as §2
# common ragweed = assay: Test E pre-/postemergence herbicide test; type: in vivo, Ambrosia elatior; details: Preemergence
# Method in brief: as §2
# mustard = assay: Test E pre-/postemergence herbicide test; type: in vivo, Brassica nigra; details: Preemergence
# Method in brief: as §2
# barnyardgrass = assay: Test E pre-/postemergence herbicide test; type: in vivo, Echinochloa crus-galli; details: Preemergence
# Method in brief: as §2
# southern sandbur = assay: Test E pre-/postemergence herbicide test; type: in vivo, Cenchrus echinatus; details: Preemergence
# Method in brief: as §2
# prickly sida = assay: Test E pre-/postemergence herbicide test; type: in vivo, Sida spinosa; details: Preemergence
# Method in brief: as §2
# common chickweed = assay: Test E pre-/postemergence herbicide test; type: in vivo, Stellaria media; details: Preemergence
# Method in brief: as §2
# tropical spiderwort = assay: Test E pre-/postemergence herbicide test; type: in vivo, Commelina benghalensis; details: Preemergence
# Method in brief: as §2
# annual bluegrass = assay: Test E pre-/postemergence herbicide test; type: in vivo, Poa annua; details: Preemergence
# Method in brief: as §2
# [1] = Postemergence, 500 g ai/ha, scale 0 to 100
# [2] = Postemergence, 250 g ai/ha, scale 0 to 100, 0 no effect, 100 complete control
# [3] = postemergence, 125 g ai/ha, scale 0 to 100
# [4] = postemergence, 62 g ai/ha, scale 0 to 100
# [5] = 125 g ai/ha, scale 0 (no effect) to 100 (complete control)
# [6] = 250 g ai/ha, scale 0 (no effect) to 100 (complete control)
# [7] = 500 g ai/ha, scale 0 (no effect) to 100 (complete control)
structure (smiles),measurement,setting,value
CCNC(=O)c1cccc(NC(=O)c2cc(C(C)(C)C)nn2CC)n1 [Compound 144],Canarygrass plant response rating,canarygrass; [1],50
same,"Plant response rating, Canarygrass",canarygrass; [2],40
same,"Plant response rating, Canarygrass",canarygrass; [3],40
same,"Plant response rating, Canarygrass",canarygrass; [4],40
same,"Foxtail, Green plant response rating",green foxtail; [1],60
same,"Plant response rating, Foxtail, Green",green foxtail; [2],60
same,"Plant response rating, Foxtail, Green",green foxtail; [3],60
same,"Plant response rating, Foxtail, Green",green foxtail; [4],40
same,Windgrass plant response rating,windgrass; [1],70
same,"Plant response rating, Windgrass",windgrass; [2],60
same,"Plant response rating, Windgrass",windgrass; [3],60
same,"Plant response rating, Windgrass",windgrass; [4],50
same,"Plant response rating, Crabgrass, Large","large crabgrass; 62 g ai/ha, scale 0 to 100",0
same,"Plant response rating, Crabgrass, Large",large crabgrass; [5],40
same,"Plant response rating, Crabgrass, Large",large crabgrass; [6],50
same,"Plant response rating, Crabgrass, Large",large crabgrass; [7],60
same,"Plant response rating, Johnsongrass","johnsongrass; 62 g ai/ha, scale 0 to 100",30
same,"Plant response rating, Johnsongrass",johnsongrass; [5],50
same,"Plant response rating, Johnsongrass",johnsongrass; [6],60
same,"Plant response rating, Johnsongrass",johnsongrass; [7],60
same,"Plant response rating, Morningglory","pitted morningglory; 62 g ai/ha, scale 0 to 100",0
same,"Plant response rating, Morningglory",pitted morningglory; [5],20
same,"Plant response rating, Morningglory",pitted morningglory; [6],20
same,"Plant response rating, Morningglory",pitted morningglory; [7],100
same,"Plant response rating, Ragweed","common ragweed; 62 g ai/ha, scale 0 to 100",0
same,"Plant response rating, Ragweed",common ragweed; [5],30
same,"Plant response rating, Ragweed",common ragweed; [6],40
same,"Plant response rating, Ragweed",common ragweed; [7],40
same,"Plant response rating, Black Mustard","mustard; 62 g ai/ha, scale 0 to 100",20
same,"Plant response rating, Black Mustard",mustard; [5],70
same,"Plant response rating, Black Mustard",mustard; [6],75
same,"Plant response rating, Black Mustard",mustard; [7],100
same,"Plant response rating, Barnyardgrass","barnyardgrass; 62 g ai/ha, scale 0 to 100",30
same,"Plant response rating, Barnyardgrass",barnyardgrass; [5],60
same,"Plant response rating, Barnyardgrass",barnyardgrass; [6],80
same,"Plant response rating, Barnyardgrass",barnyardgrass; [7],90
same,"Plant response rating, Sandbur","southern sandbur; 62 g ai/ha, scale 0 to 100",10
same,"Plant response rating, Sandbur",southern sandbur; [5],30
same,"Plant response rating, Sandbur",southern sandbur; [6],30
same,"Plant response rating, Sandbur",southern sandbur; [7],60
same,"Plant response rating, Prickly Sida","prickly sida; 62 g ai/ha, scale 0 to 100",10
same,"Plant response rating, Prickly Sida",prickly sida; [5],90
same,"Plant response rating, Prickly Sida",prickly sida; [6],90
same,"Plant response rating, Prickly Sida",prickly sida; [7],95
same,"Plant response rating, Chickweed","common chickweed; 62 g ai/ha, scale 0 to 100",50
same,"Plant response rating, Chickweed",common chickweed; [5],90
same,"Plant response rating, Chickweed",common chickweed; [6],95
same,"Plant response rating, Chickweed",common chickweed; [7],95
same,"Plant response rating, Spiderwort","tropical spiderwort; 62 g ai/ha, scale 0 to 100",60
same,"Plant response rating, Spiderwort",tropical spiderwort; [5],60
same,"Plant response rating, Spiderwort",tropical spiderwort; [6],60
same,"Plant response rating, Spiderwort",tropical spiderwort; [7],100
same,"Plant response rating, Bluegrass","annual bluegrass; 62 g ai/ha, scale 0 to 100",80
same,"Plant response rating, Bluegrass",annual bluegrass; [5],90
same,"Plant response rating, Bluegrass",annual bluegrass; [6],100
same,"Plant response rating, Bluegrass",annual bluegrass; [7],100
